# Test results: ChEMBL document CHEMBL4007388, “Synthesis and antiproliferative activity of monocationic arylthiophene derivatives” (Eur J Med Chem, 2017)
# pIC50: −log10 of the molar value.
# Key:
# HT-29 = assay: Growth inhibition of human HT-29 cells incubated for 48 hrs by sulforhodamine B assay; assay type: functional; settings: HT-29, 48 h
# NCI-H226 = assay: Growth inhibition of human NCI-H226 cells incubated for 48 hrs by sulforhodamine B assay; assay type: functional; settings: NCI-H226, 48 h
# [1] = Antioxidant activity assessed as superoxide dismutase-like activity by measuring inhibition of superoxide radical anion production at 2 uM by NBT reduction assay relative to control; assay type: functional
# NCI/ADR-RES = assay: Growth inhibition of human NCI/ADR-RES cells incubated for 48 hrs by sulforhodamine B assay; assay type: functional
# Escherichia coli = assay: Induction of Escherichia coli genomic DNA cleavage after 1 hr by agarose gel electrophoresis method
# COLO 205 = assay: Growth inhibition of human COLO205 cells incubated for 48 hrs by sulforhodamine B assay; assay type: functional; settings: COLO 205, 48 h
# CAKI-1 = assay: Growth inhibition of human Caki1 cells incubated for 48 hrs by sulforhodamine B assay; assay type: functional; settings: CAKI-1, 48 h
# HCC 2998 = assay: Growth inhibition of human HCC2998 cells incubated for 48 hrs by sulforhodamine B assay; assay type: functional; settings: HCC 2998, 48 h
# [2] = Growth inhibition of human NCI60 cells at 10 uM after 48 hrs by SRB assay relative to control; values are per cent of control; settings: NCI60, 48 h
# SK-OV-3 = assay: Growth inhibition of human SKOV3 cells incubated for 48 hrs by sulforhodamine B assay; assay type: functional; settings: SK-OV-3, 48 h
# M14 = assay: Growth inhibition of human M14 cells incubated for 48 hrs by sulforhodamine B assay; assay type: functional; settings: M14, 48 h
# HOP-92 = assay: Growth inhibition of human HOP92 cells incubated for 48 hrs by sulforhodamine B assay; assay type: functional; settings: HOP-92, 48 h
# WI-38 = assay: Cytotoxicity against human WI38 cells assessed as reduction in cell viability after 24 hrs by MTT assay; assay type: cell-based; settings: WI-38, 24 h
# SW-620 = assay: Growth inhibition of human SW620 cells incubated for 48 hrs by sulforhodamine B assay; assay type: functional; settings: SW-620, 48 h
# UACC-62 = assay: Growth inhibition of human UACC62 cells incubated for 48 hrs by sulforhodamine B assay; assay type: functional; settings: UACC-62, 48 h
# SN12C = assay: Growth inhibition of human SN12C cells incubated for 48 hrs by sulforhodamine B assay; assay type: functional
# K562 = assay: Growth inhibition of human K562 cells incubated for 48 hrs by sulforhodamine B assay; assay type: functional; settings: K562, 48 h
# MCF7 = assay: Growth inhibition of human MCF7 cells incubated for 48 hrs by sulforhodamine B assay; assay type: functional; settings: MCF7, 48 h
# Malme-3M = assay: Growth inhibition of human MALME-3M cells incubated for 48 hrs by sulforhodamine B assay; assay type: functional
# ACHN = assay: Growth inhibition of human ACHN cells incubated for 48 hrs by sulforhodamine B assay; assay type: functional
# SK-MEL-28 = assay: Growth inhibition of human SK-MEL-28 cells incubated for 48 hrs by sulforhodamine B assay; assay type: functional; settings: SK-MEL-28, 48 h
# DU-145 = assay: Growth inhibition of human DU145 cells incubated for 48 hrs by sulforhodamine B assay; assay type: functional; settings: DU-145, 48 h
# SF-268 = assay: Growth inhibition of human SF268 cells incubated for 48 hrs by sulforhodamine B assay; assay type: functional; settings: SF-268, 48 h
# IGROV-1 = assay: Growth inhibition of human IGROV1 cells incubated for 48 hrs by sulforhodamine B assay; assay type: functional; settings: IGROV-1, 48 h
# HCT-15 = assay: Growth inhibition of human HCT15 cells incubated for 48 hrs by sulforhodamine B assay; assay type: functional; settings: HCT-15, 48 h
# MDA-MB-468 = assay: Growth inhibition of human MDA-MB-468 cells incubated for 48 hrs by sulforhodamine B assay; assay type: functional; settings: MDA-MB-468, 48 h
# PC-3 = assay: Growth inhibition of human PC3 cells incubated for 48 hrs by sulforhodamine B assay; assay type: functional; settings: PC-3, 48 h
# 786-0 = assay: Growth inhibition of human 786-O cells incubated for 48 hrs by sulforhodamine B assay; assay type: functional; settings: 786-0, 48 h
# OVCAR-4 = assay: Growth inhibition of human OVCAR4 cells incubated for 48 hrs by sulforhodamine B assay; assay type: functional; settings: OVCAR-4, 48 h
# CCRF-CEM = assay: Growth inhibition of human CCRF-CEM cells incubated for 48 hrs by sulforhodamine B assay; assay type: functional
# HL-60(TB) = assay: Growth inhibition of human HL-60(TB) cells incubated for 48 hrs by sulforhodamine B assay; assay type: functional; settings: HL-60, 48 h
# OVCAR-8 = assay: Growth inhibition of human OVCAR8 cells incubated for 48 hrs by sulforhodamine B assay; assay type: functional; settings: OVCAR-8, 48 h
# SR = assay: Growth inhibition of human SR cells incubated for 48 hrs by sulforhodamine B assay; assay type: functional
# OVCAR-5 = assay: Growth inhibition of human OVCAR5 cells incubated for 48 hrs by sulforhodamine B assay; assay type: functional; settings: OVCAR-5, 48 h
# SNB-19 = assay: Growth inhibition of human SNB19 cells incubated for 48 hrs by sulforhodamine B assay; assay type: functional; settings: SNB-19, 48 h
# RPMI-8226 = assay: Growth inhibition of human RPMI8226 cells incubated for 48 hrs by sulforhodamine B assay; assay type: functional; settings: RPMI-8226, 48 h
# WISH = assay: Cytotoxicity against human WISH cells assessed as reduction in cell viability after 24 hrs by MTT assay; assay type: cell-based
# SK-MEL-2 = assay: Growth inhibition of human SK-MEL-2 cells incubated for 48 hrs by sulforhodamine B assay; assay type: functional; settings: SK-MEL-2, 48 h
# BT-549 = assay: Growth inhibition of human BT549 cells incubated for 48 hrs by sulforhodamine B assay; assay type: functional; settings: BT-549, 48 h
# Hs-578T = assay: Growth inhibition of human Hs 578T cells incubated for 48 hrs by sulforhodamine B assay; assay type: functional
# NCI-H322M = assay: Growth inhibition of human NCI-H322M cells incubated for 48 hrs by sulforhodamine B assay; assay type: functional
# RXF 393 = assay: Growth inhibition of human RXF393 cells incubated for 48 hrs by sulforhodamine B assay; assay type: functional; settings: RXF 393, 48 h
# OVCAR-3 = assay: Growth inhibition of human OVCAR3 cells incubated for 48 hrs by sulforhodamine B assay; assay type: functional; settings: OVCAR-3, 48 h
# UO-31 = assay: Growth inhibition of human UO31 cells incubated for 48 hrs by sulforhodamine B assay; assay type: functional; settings: UO-31, 48 h
# SF-539 = assay: Growth inhibition of human SF539 cells incubated for 48 hrs by sulforhodamine B assay; assay type: functional; settings: SF-539, 48 h
# HOP-62 = assay: Growth inhibition of human HOP62 cells incubated for 48 hrs by sulforhodamine B assay; assay type: functional; settings: HOP-62, 48 h
# HCT-116 = assay: Growth inhibition of human HCT116 cells incubated for 48 hrs by sulforhodamine B assay; assay type: functional; settings: HCT-116, 48 h
# TK-10 = assay: Growth inhibition of human TK10 cells incubated for 48 hrs by sulforhodamine B assay; assay type: functional; settings: TK-10, 48 h
compound,measurement,setting,value
COc1cc(OC)cc(-c2ccc(-c3ccc(C(=N)N)cc3)s2)c1,GI50,HT-29,1.09 µM
same,GI50,NCI-H226,2.23 µM
same,inhibition,[1],57%
same,GI50,NCI/ADR-RES,1.97 µM
same,Activity,Escherichia coli,Dose-dependent effect
same,GI50,COLO 205,1.33 µM
same,GI50,CAKI-1,1.81 µM
same,GI50,HCC 2998,1.82 µM
same,growth percent at 10 µM,[2],-74.1%
same,GI50,SK-OV-3,2.08 µM
same,GI50,M14,1.73 µM
same,GI50,HOP-92,1.75 µM
same,pIC50,WI-38,4.13
same,GI50,SW-620,1.95 µM
same,GI50,UACC-62,1.87 µM
same,GI50,SN12C,1.97 µM
same,GI50,K562,0.418 µM
same,GI50,MCF7,1.22 µM
same,GI50,Malme-3M,1.84 µM
same,GI50,ACHN,1.77 µM
same,GI50,SK-MEL-28,1.79 µM
same,GI50,DU-145,1.77 µM
same,GI50,SF-268,1.85 µM
same,GI50,IGROV-1,2.11 µM
same,GI50,HCT-15,1.22 µM
same,GI50,MDA-MB-468,1.68 µM
same,GI50,PC-3,1.8 µM
same,GI50,786-0,1.87 µM
same,GI50,OVCAR-4,2.06 µM
same,GI50,CCRF-CEM,1.88 µM
same,GI50,HL-60(TB),1.9 µM
same,GI50,OVCAR-8,2.48 µM
same,GI50,SR,0.231 µM
same,GI50,OVCAR-5,1.9 µM
same,GI50,SNB-19,1.97 µM
same,GI50,RPMI-8226,1.46 µM
same,pIC50,WISH,4.06
same,GI50,SK-MEL-2,1.95 µM
same,GI50,BT-549,1.8 µM
same,GI50,Hs-578T,1.99 µM
same,GI50,NCI-H322M,1.69 µM
same,GI50,RXF 393,1.81 µM
same,GI50,OVCAR-3,1.95 µM
same,GI50,UO-31,1.77 µM
same,GI50,SF-539,1.75 µM
same,GI50,HOP-62,1.9 µM
same,GI50,HCT-116,1.76 µM
same,GI50,TK-10,1.97 µM
N=C(N)c1ccc(-c2ccc(-c3ccc(Cl)cc3)s2)cc1,GI50,HT-29,0.177 µM
same,GI50,NCI-H226,0.451 µM
same,inhibition,[1],60.6%
same,GI50,NCI/ADR-RES,0.185 µM
same,Activity,Escherichia coli,Dose-dependent effect
same,GI50,COLO 205,0.203 µM
same,GI50,CAKI-1,0.167 µM
same,GI50,HCC 2998,0.183 µM
same,growth percent at 10 µM,[2],-70.5%
same,GI50,SK-OV-3,0.246 µM
same,GI50,M14,0.172 µM
same,GI50,HOP-92,0.156 µM
same,pIC50,WI-38,3.88
same,GI50,SW-620,0.177 µM
same,GI50,UACC-62,0.178 µM
same,GI50,SN12C,0.18 µM
same,GI50,K562,0.202 µM
same,GI50,MCF7,0.171 µM
same,GI50,Malme-3M,0.219 µM
same,GI50,ACHN,0.18 µM
same,GI50,SK-MEL-28,0.176 µM
same,GI50,DU-145,0.185 µM
same,GI50,SF-268,0.184 µM
same,GI50,HCT-15,0.171 µM
same,GI50,MDA-MB-468,0.173 µM
same,GI50,PC-3,0.164 µM
same,GI50,786-0,0.178 µM
same,GI50,OVCAR-4,0.172 µM
same,GI50,CCRF-CEM,0.2 µM
same,GI50,HL-60(TB),0.214 µM
same,GI50,OVCAR-8,0.223 µM
same,GI50,SR,0.249 µM
same,GI50,OVCAR-5,0.169 µM
same,GI50,SNB-19,0.194 µM
same,GI50,RPMI-8226,0.194 µM
same,pIC50,WISH,3.83
same,GI50,SK-MEL-2,0.241 µM
same,GI50,BT-549,1.73 µM
same,GI50,Hs-578T,0.2 µM
same,GI50,NCI-H322M,0.182 µM
same,GI50,RXF 393,0.157 µM
same,GI50,OVCAR-3,0.194 µM
same,GI50,UO-31,0.175 µM
same,GI50,SF-539,0.171 µM
same,GI50,HCT-116,0.17 µM
same,GI50,TK-10,0.22 µM
N=C(N)c1ccc(-c2ccc(-c3ccccc3)s2)cc1F,GI50,HT-29,3.4 µM
same,GI50,NCI-H226,12.9 µM
same,inhibition,[1],54.5%
same,GI50,NCI/ADR-RES,14.1 µM
same,Activity,Escherichia coli,Dose-dependent effect
same,GI50,COLO 205,1.82 µM
same,GI50,CAKI-1,6.79 µM
same,GI50,HCC 2998,2.45 µM
same,growth percent at 10 µM,[2],-79.2%
same,GI50,SK-OV-3,10.2 µM
same,GI50,M14,2.12 µM
same,GI50,HOP-92,1.31 µM
same,pIC50,WI-38,4.04
same,GI50,SW-620,4.05 µM
same,GI50,UACC-62,10.3 µM
same,GI50,SN12C,8.01 µM
same,GI50,K562,3.97 µM
same,GI50,MCF7,3.17 µM
same,GI50,Malme-3M,3.25 µM
same,GI50,ACHN,6.56 µM
same,GI50,SK-MEL-28,8.23 µM
same,GI50,DU-145,11.3 µM
same,GI50,SF-268,11.2 µM
same,GI50,IGROV-1,5.29 µM
same,GI50,HCT-15,4.62 µM
same,GI50,MDA-MB-468,2.04 µM
same,GI50,PC-3,4.18 µM
same,GI50,786-0,6.02 µM
same,GI50,OVCAR-4,10.4 µM
same,GI50,CCRF-CEM,3.2 µM
same,GI50,HL-60(TB),2.14 µM
same,GI50,OVCAR-8,11.3 µM
same,GI50,SR,3.11 µM
same,GI50,OVCAR-5,10.9 µM
same,GI50,SNB-19,11.7 µM
same,GI50,RPMI-8226,2.78 µM
same,pIC50,WISH,4.09
same,GI50,SK-MEL-2,4.91 µM
same,GI50,BT-549,10.7 µM
same,GI50,Hs-578T,10.9 µM
same,GI50,NCI-H322M,6 µM
same,GI50,RXF 393,7.01 µM
same,GI50,OVCAR-3,8.9 µM
same,GI50,UO-31,2.68 µM
same,GI50,SF-539,4.74 µM
same,GI50,HOP-62,10.5 µM
same,GI50,HCT-116,3.26 µM
same,GI50,TK-10,10.7 µM
